How the values were obtained:
human recombinant LSD1 = target: T1, human recombinant LSD1 (Homo sapiens, UniProt O60341); test: LSD1 inhibitor screening assay (Cayman Chemical kit, fluorometric); format: biochemical; conditions: 10 μM compound
T1 construct: purchased Cayman Chemical Item #700120
Description: LSD1 Inhibitor Screening Assay:
In short, 10 μM of compound was combined with the fluorometic substrate 10-acetyl-3,7-dihydroxyphenoxazine, horseradish peroxidase, human recombinant LSD1, and 100 μM dimethylated lysine at residue 4 [ARTK(diMe)[…]] (Seq. ID No: 1) for 30 mins at 37° C. Plates were read using an excitation wavelength of 535 nm and an emission wavelength of 590 nm with a SpectraMax M5 Microplate reader.

LSD1:CoREST complex = test: Pull-down of HDAC1/CoREST/LSD1 complex with LSD1 antibody, Western blot for CoREST; format: cell-based; conditions: primary feline cardiomyocytes, 3 h, 1 μM; LSD1 antibody pull-down
Description: Co-immunoprecipitation analysis for LSD1:CoREST complex following treatment from primary rat cardiomyocytes with 5 μM and 1 μM C1 was performed as described above. Lysates pulled down with LSD1 antibody and western blotted for CoREST (n=2).

mouse heart = test: Langendorff isolated heart model, ischemia/reperfusion; conditions: versus vehicle
Text: (§1) In the Langendorff preparation, the heart is removed with preservation of a portion of the afferent and efferent blood vessels; it is then perfused in a reverse fashion via the aorta, usually with a nutrient rich, oxygenated solution (e.g. Krebs-Henseleit solution or Tyrode's solution). The backwards pressure causes the aortic valve to shut, forcing the solution into the coronary vessels, which normally supply the heart tissue with blood. This feeds nutrients and oxygen to the cardiac muscle, allowing it to continue beating for several hours after its removal from the animal. This is a useful preparation because it allows the addition of drugs (via the perfusate) and observation of their effect on the heart without the complications involved with in vivo experimentation, such as neuronal and hormonal effects from living animal (Broadley, K. J., 1970). A pressure transducer is inserted to measure a number of cardiac performance parameters including left ventricular developed pressure, left ventricular end diastolic pressure, heart rate, etc. Following the Langendorff procedure, the myocardium is cut into cross sections, and infarcted tissue is identified by the inability to take up stain; thus infarcted areas appear white, while healthy areas appear red.
The compounds described herein may be used to protect the myocardium from injury following an ischemic event. In FIG. 6, a mouse heart was subjected to ischemia by ligation of the afferent vessel in a Langendorff preparation, as described above. Prior to the induction of ischemia, hearts were either pre-treated with vehicle, verlindamycin or C1. […] In FIG. 8, the results of an experiment to measure infarcted tissue in a myocardial cross-section are shown. Results are expressed as a percentage of the area of infarct with respect to total surface area. […] The HDAC1/CoREST/LSD1 complex was pulled down with an LSD1 antibody and a Western blot for CoREST was performed.

murine myocardium = test: Infarct area in myocardial cross-section after induced myocardial ischemia; format: in vivo, mouse; conditions: 10 mg/kg; versus vehicle
Text: as §1, with “Following the Langendorff procedure, the myocardium is cut into cross sections, and infarcted tissue is identified by the inability to take up stain; thus infarcted areas appear white, while healthy areas appear red.” left out
The compounds described herein may be used to protect the myocardium from injury following an ischemic event. […] Results are expressed as a percentage of the area of infarct with respect to total surface area. […]

[1] = Solubility noted in the LSD1 screen; format: physicochemical; conditions: LSD1 screen at 10 μM
[2] = synthetic analogues of C1, Table 2

inhibition at 10 µM (human recombinant LSD1; Chembridge analogues table) [%]	inhibition at 10 µM (human recombinant LSD1; [2]) [%]	Compound	other results
30.8 ± 5.7	–	COc1ccc(Cl)cc1CNc1nn[nH]n1 [Compound C13, N-(5-chloro-2-methoxybenzyl)-2H-tetrazol-5-amine]	–
–	–	Verlindamycin tetrahydrochloride [Compound 2d, reference compound]	association between LSD1 and CoREST (LSD1:CoREST complex): Only compound C1 disrupted the association; left ventricular end diastolic pressure (mouse heart; 1 hour pre-treatment with 1.0 μM): reduced to near-normal levels; left ventricular developed pressure (mouse heart; pre-treatment before ischemia, after reperfusion): restored to nearly normal levels; infarct area as a percentage of the total left ventricular area (murine myocardium): significantly more effective than treatment with vehicle
–	67.6 ± 6.2	COc1cc(Oc2cccc(Cl)c2CNc2nc(N)n[nH]2)cc(OC)c1OC [Compound M7]	–
30.9 ± 7.7	–	Clc1cccc(Cl)c1CNc1nc[nH]n1 [Compound C9, N-(2,6-dichlorobenzyl)-1H-1,2,4-triazol-3-amine]	–
–	77.7 ± 2.9	CCOc1cc(C)ccc1Oc1cccc(Cl)c1CNc1nc(N)n[nH]1 [Compound M4]	–
–	41 ± 17.4	Nc1nnc(NCc2ccccc2)[nH]1 [Compound 5e]	–
–	58.2 ± 8.8	CC(C)(C)c1ccc(Oc2cccc(Cl)c2CNc2nnc(N)[nH]2)cc1 [Compound 5f, N^3-(2-(4-(tert-butyl)phenoxy)-6-chlorobenzyl)-4H-1,2,4-triazole-3,5-diamine]	–
4.6 ± 6.9	–	Clc1ccccc1CNc1nc[nH]n1 [Compound C6, N-(2-chlorobenzyl)-1H-1,2,4-triazol-3-amine]	–
–	63.3 ± 8.6	COc1cc(OC)cc(Oc2cccc(Cl)c2CNc2nnc(N)[nH]2)c1 [Compound 5n, N^3-(2-chloro-6-(3,5-dimethoxyphenoxy)benzyl)-4H-1,2,4-triazole-3,5-diamine]	–
–	67.9 ± 6.5	Cc1cc(C)cc(Oc2cccc(Cl)c2CNc2nnc(N)[nH]2)c1 [Compound 5g, N^3-(2-chloro-6-(3,5-dimethylphenoxy)benzyl)-4H-1,2,4-triazole-3,5-diamine]	–
–	73.1 ± 1.6	COc1cccc(Cl)c1CNc1nc(N)n[nH]1 [Compound H1]	–
6.9 ± 7.5	–	Cc1ccc(COc2ccc(Cl)cc2CNc2nn[nH]n2)cc1 [Compound C8, N-(5-chloro-2-((4-methylbenzyl)oxy)benzyl)-2H-tetrazol-5-amine]	–
–	53.2 ± 1.7	COc1ccc(Sc2cccc(Cl)c2CNc2nnc(N)[nH]2)cc1OC [Compound 5t, N^3-(2-chloro-6-((3,4-dimethoxyphenyl)thio)benzyl)-4H-1,2,4-triazole-3,5-diamine]	–
–	76.4 ± 2.2	Nc1n[nH]c(NCc2c(Cl)cccc2Oc2ccc(F)cc2)n1 [Compound M6]	–
27.7 ± 9	–	Fc1ccc(COc2ccc(Cl)cc2CNc2nc[nH]n2)cc1 [Compound C2, N-(5-chloro-2-((4-fluorobenzyl)oxy)benzyl)-1H-1,2,4-triazol-3-amine]	–
–	–	CSc1ccc(Oc2cccc(Cl)c2CNc2nnc(N)[nH]2)cc1 [Compound 5l, N^3-(2-chloro-6-(4-((methyl)thio)phenoxy)benzyl)-4H-1,2,4-triazole-3,5-diamine]	solubility (reason why % inhibition was not determined) [1]: Not Determined (Insolube)
18.1 ± 8.2	–	COc1cccc(CNc2nnc[nH]2)c1OCc1ccccc1Cl [Compound C7, N-(2((2-chlorobenzyl)oxy)-3-methoxybenzyl)-4H-1,2,4-triazo1-3-amine]	–
20.8 ± 5	–	CCOc1ccc(Cl)cc1CNc1nn[nH]n1 [Compound C14, N-(5-chloro-2-ethoxybenzyl)-2H-tetrazol-5-amine]	–
–	84.7 ± 3.2	COc1cc(C)ccc1Oc1cccc(Cl)c1CNc1nnc(N)[nH]1 [Compound 5m, N^3-(2-chloro-6-(2-methoxy-4-methylphenoxy)benzyl)-4H-1,2,4-triazole-3,5-diamine]	–
19.9 ± 8.4	–	Clc1ccc(OCc2ccccc2)c(CNc2nn[nH]n2)c1 [Compound C11, N-(2-(benzyloxy)-5-chlorobenzyl)-2H-tetrazol-5-amine]	–

inhibition at 10 µM (human recombinant LSD1; Chembridge analogues table) [%]	inhibition at 10 µM (human recombinant LSD1; [2]) [%]	Compound	other results
-3.1 ± 7.8	–	COc1cccc(NCc2nn[nH]n2)c1OCc1ccc(F)cc1Cl [Compound C5, N-((2H-tetrazol-5-yl)methyl)-2-((2-chloro-4-fluorobenzyl)oxy)-3-methoxyaniline]	–
2.2 ± 6.9	–	Clc1ccc(CNc2nc[nH]n2)c(Cl)c1 [Compound C4, N-(2,4-dichlorobenzyl)-1H-1,2,4-triazol-3-amine]	–
22.1 ± 7.3	–	COc1cccc(CNc2nn[nH]n2)c1OCc1ccccc1Cl [Compound C12, N-(2-((2-chlorobenzyl)oxy)-3-methoxybenzyl)-2H-tetrazol-5-amine]	–
–	44.6 ± 5.1	COc1cccc(Oc2cccc(Cl)c2CNc2nnc(N)[nH]2)c1 [Compound 5d, N^3-(2-chloro-6-(3-methoxyphenoxy)benzyl)-4H-1,2,4-triazole-3,5-diamine]	–
–	–	Nc1nnc(NCc2c(Cl)cccc2Oc2ccc(SC(F)(F)F)cc2)[nH]1 [Compound 5i, N^3-(2-chloro-6-(4-((trifluoromethyl)thio)phenoxy)benzyl)-4H-1,2,4-triazole-3,5-diamine]	solubility (reason why % inhibition was not determined) [1]: Not Determined (Insoluble)
30.6 ± 6.4	–	Fc1ccccc1COc1ccc(Cl)cc1CNc1nc[nH]n1 [Compound C3, N-(5-chloro-2-((2-fluorobenzyl)oxy)benzyl)-1H-1,2,4-triazol-3-amine]	–
–	73.8 ± 4.4	CCOc1cc(C)ccc1Oc1ccccc1CNc1nc(N)n[nH]1 [Compound M10]	–
–	78.1 ± 2.6	Nc1n[nH]c(NCc2ccccc2Oc2cccc3ccccc23)n1 [Compound M9]	–
-3 ± 12.7	–	CCOc1cc(Cl)cc(CNc2nc[nH]n2)c1 [Compound C10, N-(3-chloro-5-ethoxybenzyl)-1H-1,2,4-triazol-3-amine]	–
–	95.3 ± 2.8	Nc1n[nH]c(NCc2c(Cl)cccc2Oc2cccc3ccccc23)n1 [Compound M1]	–
–	67.6 ± 3.7	Nc1n[nH]c(NCc2c(Cl)cccc2Oc2cccc3cc[nH]c23)n1 [Compound M5]	–
–	44.9 ± 4.6	Nc1nnc(NCc2c(Cl)cccc2Oc2cc(C(F)(F)F)cc(C(F)(F)F)c2)[nH]1 [Compound 5h, N^3-(2-(3,5-bis(trifluoromethyl)phenoxy)-6-chlorobenzyl)-4H-1,2,4-triazole-3,5-diamine]	–
–	65.8 ± 6.4	Nc1nnc(NCc2c(Cl)cccc2Oc2ccc3c(c2)OCO3)[nH]1 [Compound 5r, N^3-(2-(benzo[d][1,3]dioxol-5-yloxy)-6-chlorobenzyl)-4H-1,2,4-triazole-3,5-diamine]	–
–	74.2 ± 5.2	Cc1ccccc1Oc1cccc(Cl)c1CNc1nnc(N)[nH]1 [Compound 5q]	–
–	67.8 ± 5.4	Nc1nnc(NCc2c(Cl)cccc2Oc2ccc(Br)cc2C(F)(F)F)[nH]1 [Compound 5k, N^3-(2-(4-bromo-2-(trifluoromethyl)phenoxy)-6-chlorobenzyl)-4H-1,2,4-triazole-3,5-diamine]	–
–	56 ± 4.1	COc1cc(Oc2ccccc2CNc2nc(N)n[nH]2)cc(OC)c1OC [Compound M8]	–
–	59.3 ± 6.1	Cc1ccc(Oc2cccc(Cl)c2CNc2nnc(N)[nH]2)cc1 [Compound 5b, N^3-(2-chloro-6-(p-tolyloxy)benzyl)-4H-1,2,4-triazole-3,5-diamine]	–
–	56.3 ± 3.2	Cc1ccc(C(C)C)c(Oc2cccc(Cl)c2CNc2nnc(N)[nH]2)c1 [Compound 5c, N^3-(2-chloro-6-(2-isopropyl-5-methylphenoxy)benzyl)-4H-1,2,4-triazole-3,5-diamine]	–
–	66.8 ± 4.4	Nc1n[nH]c(NCc2c(Cl)cccc2Oc2ccc(-c3ccccc3)cc2)n1 [Compound M3]	–
–	–	Nc1nnc(NCc2c(Cl)cccc2Oc2ccc(Br)cc2Br)[nH]1 [Compound 5j]	solubility (reason why % inhibition was not determined) [1]: Not Determined (Insolube)

Reference: patent publication US10118903B2, “Aminotriazole-based KDM1A inhibitors as epigenetic modulators” (MUSC FOUNDATION FOR RESEARCH DEVELOPMENT, priority 2014, dated 2018)
